Data reported in US12115178B2, “Acylated active agents and methods of their use for the treatment of autoimmune disorders” (Flagship Pioneering Innovations V, Inc., priority 2018, dated 2024).

Columns and labels:
[1] = Assay 2. Stability in Simulated Intestinal Fluid (SIF); assay type: in vitro ADME; settings: SIF pH 6.7 with pancreatin, 1 μM, 37° C.
Summary of the method: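 Degradation rates came from LC/MS of acetonitrile-quenched samples drawn at intervals, starting at T0. The medium was freshly made pH 6.7 FaSSIF containing pancreatin, and test compound was present at 1 µM while being shaken at 37 °C.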

CD4+CD25+ Treg cells = test: In vivo induction of CD4+CD25+ Treg cells in high-fat diet fed mice; settings: C57BL/6 mice on high-fat diet, 6% in diet ad libitum; compared to EGCG, acetate, or their combination
Description: Acylated active agents disclosed herein may be useful in modulating autoimmunity markers and for treating autoimmune disorders.

[2] = Assay 1. Stability in Simulated Gastric Fluid (SGF); assay type: in vitro ADME; settings: SGF pH 1.6 with pepsin, 1 μM, 37° C.
Summary of the method: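 Degradation rate from LC/MS of acetonitrile-quenched aliquots (T0, then regular intervals). Fresh SGF (pH 1.6 NaCl, FaSSIF powder, pepsin 0.1 mg/mL) held compound at 1 μM final, 37° C; 1 mM DMSO stock.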

DSS Colitis = test: In vivo DSS colitis; parameters: species or system Swiss Webster mice; settings: 100 mg/kg once a day oral gavage, study day 0 through 7, compared to the vehicle control
Description: Specific pathogen-free female Swiss Webster mice, 6-8 weeks old, weighing 16-20 g were obtained from Harlan. Mice were randomized into treatment groups (n=10) based on body weight on study day −2. From study day 0 through 5, all groups were given 3% dextran sulfate sodium (DSS, Spectrum, Lot #2DC0020) in drinking water. On study day 5 through, drinking water was switched to water without DSS until the study end on day 7. From study day 0 through 7, the negative control (vehicle), positive control (cyclosporine A), and the treatment groups were given vehicle (1% Methylcellulose (Sigma, 400 cP)), cyclosporine A (70 mg/kg), and compound 44 (100 mg/kg) once a day until study day 7 via oral gavage. On study day 7, animals were anesthetized with Isoflurane and bled to exsanguination followed by cervical dislocation. The entire colon was removed and the overall efficacy of compound 44 was assessed based on colon histopathology. […] Statistical analysis was performed with GraphPad Prism (GraphPad Software). Mann-Whitney U test was used to assess significance between the vehicle control and each treatment group.

[3] = Detection of compound 44 in whole blood after dosing with compound 44; assay type: in vivo, Swiss Webster mice; settings: detected after dosing with Compound 44, oral gavage 10 mg/mL suspension at 10 mL/kg, mice
Procedure: Whole blood (125 uL) was collected submandibular and transferred to chilled K2EDTA tubes pre-filled with 125 uL of acetonitrile and frozen at −70° C. until analysis. Mice (1-3) were sampled at 5 min, 1 hr, and 8 hr. Mice (4-6) were sampled at 15 min, 2 hours and 24 hours. Mice (7-9) were sampled at 30 min and 4 hrs. Quantification of compound 44 was done via bioanalysis using LC-MS/MS.

[4] = Detection of mesalamine and compound 44 in feces after dosing with compound 44; assay type: in vivo, Swiss Webster mice; settings: detected after dosing with Compound 44, oral gavage 10 mg/mL suspension at 10 mL/kg, mice
Procedure: Samples were frozen and stored at −70° C. until analysis. Quantification of mesalamine and compound 44 were done via bioanalysis using LC-MS/MS.

[5] = tested on: adoptive T-cell transfer mice; test: Adoptive T-cell transfer study; assay type: in vivo, CB-17 SCID mice; settings: compound 44 100 mg/kg, olsalazine 30 mg/kg, through day 42, compared to the vehicle control
Description: On study day 0, naïve T-cells were obtained from the spleen of 11 to 12 week-old Balb/C mice using the SCID Cell Separation Protocol with the following labelling scheme; CD4+CD45RB^highCD25− and CD4+CD45RB^lowCD25+ cell (APC CD4 Antibody (100412), FITC CD45RB Antibody (103306), PE CD25 Antibody (101904), from BioLegend, San Diego, CA, and CD4 cell enrichment kit: 19752A, Stemcell Technologies, Cambridge, MA) and the 4×10^5 of CD4^+CD45RB^highCD25− cells were transferred 6-7 weeks old CB-17 SCID mice. Recipient mice were randomized based on their body weight (n=12 mice/group), and received […] of vehicle (0.5% methyl-cellulose) (vehicle control), 0.5 mg per mouse of anti-IL-12 (positive control), 30 mg/kg of olsalazine (positive treatment group), and 100 mg/kg of compound 44 (compound treatment group) through day 42. On day 42, animals were anesthetized with Isoflurane and bled to exsanguination followed by cervical dislocation. The entire colon was removed and the overall efficacy of compound 44 was assessed based on colon length and weight per length. […] Statistical analysis was performed with GraphPad Prism (GraphPad Software). Mann-Whitney U test was used to assess significance between the vehicle control and each treatment group.

| Compound | Assay 2 (SIF) (% @ Remaining 4 hours) [1] | CD4+CD25+ Treg cells (CD4+CD25+ cell counts as a percentage of all CD4+ T cells, FIG. 1) (CD4+CD25+ Treg cells) | Assay 1 (SGF) (% Remaining @ 1 hour) [2] | mucosal thickness (colon histopathology, FIG. 2) (DSS Colitis) | Concentration, uM (compound 44) [3] [µM] | Concentration, uM (compound 44) [4] [µM] | colon length (FIG. 3A) [5] | colon weight per length (FIG. 3B) [5] |
| --- | --- | --- | --- | --- | --- | --- | --- | --- |
| CC(=O)Oc1cc(OC(C)=O)c2c(c1)O[C@H](c1cc(OC(C)=O)c(OC(C)=O)c(OC(C)=O)c1)[C@H](OC(=O)c1cc(OC(C)=O)c(OC(C)=O)c(OC(C)=O)c1)C2 [Compound 2, [(2R,3R)-5,7-diacetoxy-2-(3,4,5-triacetoxyphenyl)chroman-3-yl] 3,4,5-triacetoxybenzoate] | A (<25% of the tested compound remaining) | induce CD4^+CD25^+ Treg cells | C (>75% of the tested compound remaining) |  |  |  |  |  |
| CCCC(=O)O[C@H]1[C@H](OC(=O)CCC)COC(Oc2ccc(N)cc2C(=O)O)[C@@H]1OC(=O)CCC.Cl (stereo in doubt) [Compound 44, 5-amino-2-(((2S,3R,4S,5R)-3,4,5-tris(butyryloxy)tetrahydro-2H-pyran-2-yl)oxy)benzoic acid hydrochloride] |  |  |  | significant reduction in mucosal thickness | 0.68 | 10.72 | significant increased | reduced |
